Columns and labels:
[1] = Storage stability (retest period) of the crystalline form; type: physicochemical
Experimental: (§1) Stability data supports the retest period of not less than 6 months if bimatoprost crystalline form I is stored in an appropriate container at 2 to 8° C. and at 25° C.

[2] = Thermodynamic stability of the crystalline modifications of bimatoprost; type: physicochemical; settings: temperature range between −70 and +30° C.
Experimental: as §1
The importance of bimatoprost crystalline form I rests primarily (but not exclusively) in its thermodynamic stability. […] For example, the crystalline form I may be easily prepared by recrystallizing, triturating, or reslurring of crystalline form A.

retest period supported by stability data ([1]; stored in an appropriate container at 2 to 8° C.): not less than 6 months
retest period supported by stability data ([1]; stored in an appropriate container at 25° C.): not less than 6 months
relative stability among crystalline modifications of bimatoprost [2]: most stable crystalline modification
Compound: CCNC(=O)CCC/C=C\C[C@@H]1[C@@H](/C=C/[C@@H](O)CCc2ccccc2)[C@H](O)C[C@@H]1O [Bimatoprost crystalline form I, (9S,11R,15S)-9,11,15-trihydroxy-17-phenyl-18,19,20-trinor-5Z,13E-prostadienoic acid ethylamide]
